According to US10501451B2, “Selective NR2B antagonists” (BRISTOL-MYERS SQUIBB COMPANY, priority 2015, dated 2019):
Read-outs that look alike come from different tables or passages of the source.

Tests used:
[1] = Drug levels in blood plasma and homogenized brain tissue by mass spectroscopy; format: in vivo; conditions: iv, mouse; for concentration at 15 min: male, 3 mg/Kg i.v., occupancy study
Protocol: Ex Vivo Occupancy Assay. […] 7-9 weeks old male CD-1 mice were dosed intravenously in a vehicle consisting of 10% dimethylacetamide, 40% PEG-400, 30% hydroxypropyl betacyclodextrin, and 30% water with experimental compounds and the forebrains were harvested 15 minutes post-dosing by decapitation. The brain samples were immediately snap-frozen and stored at −80° C. On the following day, the dosed brain samples were thawed on ice for 15-20 minutes followed by homogenization using Polytron for 10 seconds in cold homogenization buffer composed of 50 mM KH2PO4 (pH adjusted to 7.4 with KOH), 1 mM EDTA, 0.005% Triton X 100 and protease inhibitor cocktail (Sigma Aldrich). The crude homogenates were further homogenized using a Dounce homogenizer and the homogenized membrane aliquots from all animals were flash-frozen and stored at −80° C. until further use. The whole homogenization process was performed on ice. For determining occupancy, the membrane homogenates were first thawed on ice and then needle-homogenized using a 25 gauge needle. The homogenized membrane (6.4 mg/ml) was added to a 96-well plate followed by addition of ^3H Ro 25-6981 (6 nM). The reaction mixture was incubated for 5 minutes on a shaker at 4° C. and then harvested onto GF/B filter plates (treated with 0.5% PEI for 1 hr at room temperature). The filter plates were dried at 50° C. for 20 mins, incubated with microscint 20 for 10 minutes and read on TopCount (Perkin Elmer). Each dose or compound group consisted of 4-5 animals. The control group of animals was dosed with vehicle alone. Membrane from each animal was added in triplicates to the assay plate. Non-specific binding was determined using 10 μM Ro 25-6981 added to the wells containing membrane homogenates from vehicle-dosed animals. […]
Drug levels were determined by mass spectroscopy in the usual manner. […]
Mouse Forced Swim Test (mFST). […] The duration of immobility was evaluated during the total 6 min of the test and expressed as duration (sec) of immobility. […]

hERG channels = hERG channels (Homo sapiens (Human), UniProt Q12809); test: hERG electrophysiology assay (patch clamp); format: cell-based; conditions: HEK 293 cells stably expressing hERG channels, tail current
hERG channels, sequence (Q12809 whole entry, the tested form may be a part): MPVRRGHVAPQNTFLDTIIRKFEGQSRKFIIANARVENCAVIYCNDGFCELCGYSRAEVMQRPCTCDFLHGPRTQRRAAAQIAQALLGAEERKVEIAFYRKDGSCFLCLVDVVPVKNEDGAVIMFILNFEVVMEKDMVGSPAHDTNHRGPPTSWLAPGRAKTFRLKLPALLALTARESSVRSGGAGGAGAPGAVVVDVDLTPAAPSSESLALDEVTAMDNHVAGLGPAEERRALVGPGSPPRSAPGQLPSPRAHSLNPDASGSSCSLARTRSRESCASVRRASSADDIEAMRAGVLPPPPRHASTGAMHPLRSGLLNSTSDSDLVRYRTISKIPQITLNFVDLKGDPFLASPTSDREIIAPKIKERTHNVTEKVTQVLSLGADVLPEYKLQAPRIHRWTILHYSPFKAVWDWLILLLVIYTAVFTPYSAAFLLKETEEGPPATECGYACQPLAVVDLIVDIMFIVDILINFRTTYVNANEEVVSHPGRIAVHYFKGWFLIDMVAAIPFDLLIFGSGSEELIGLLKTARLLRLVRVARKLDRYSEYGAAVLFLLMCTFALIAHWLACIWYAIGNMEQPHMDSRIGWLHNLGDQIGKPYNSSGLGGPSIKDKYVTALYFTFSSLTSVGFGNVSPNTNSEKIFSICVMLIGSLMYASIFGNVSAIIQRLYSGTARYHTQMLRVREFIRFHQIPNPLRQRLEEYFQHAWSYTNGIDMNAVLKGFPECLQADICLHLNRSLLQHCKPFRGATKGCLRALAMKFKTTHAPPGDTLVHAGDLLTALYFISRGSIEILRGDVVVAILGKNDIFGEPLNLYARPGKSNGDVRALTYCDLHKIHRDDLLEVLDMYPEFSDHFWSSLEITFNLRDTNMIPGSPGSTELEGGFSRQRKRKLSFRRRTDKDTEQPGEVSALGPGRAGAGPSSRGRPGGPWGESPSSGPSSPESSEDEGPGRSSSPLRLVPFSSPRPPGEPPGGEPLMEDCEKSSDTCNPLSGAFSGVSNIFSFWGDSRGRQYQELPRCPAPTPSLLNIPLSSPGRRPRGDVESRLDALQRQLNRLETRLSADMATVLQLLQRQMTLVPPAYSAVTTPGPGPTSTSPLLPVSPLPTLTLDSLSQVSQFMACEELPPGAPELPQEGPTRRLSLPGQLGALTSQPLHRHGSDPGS
Protocol: hERG Electrophysiology Assay. The experimental compounds were assessed for hERG activity on HEK 293 cells stably expressing hERG channels using patch clamp technique. Coverslips plated with hERG expressing cells were placed in the experimental chamber and were perfused with a solution composed of (in mM): 140 NaCl, 4 KCl, 1.8 CaCl2, 1 MgCl2, 10 Glucose, 10 HEPES (pH 7.4, NaOH) at room temperature. Borosilicate patch pipettes had tip resistances of 2-4 Mohms when filled with an internal solution containing: 130 KCl, 1 MgCl2, 1 CaCl2, 10 EGTA, 10 HEPES, 5 ATP-K2 (pH 7.2, KOH). The cells were clamped at −80 mV in whole cell configuration using an Axopatch 200B (Axon instruments, Union City, Calif.) patch clamp amplifier controlled by pClamp (Axon instruments) software. […] First, tail currents were recorded in presence of extracellular solution alone (control) and subsequently, in extracellular solution containing increasing compound concentrations. […] The percentage inhibition at each concentration was calculated as reduction in peak tail current with respect to the peak tail current recorded in the presence of control solution. […]

concentration at 15 min ([1]; CD-1, brain, read-out: drug levels in the homogenized brain tissue): 863 nM
concentration at 15 min ([1]; CD-1, plasma, read-out: Drug levels in the blood plasma): 572 nM
concentration at 21 min ([1]; plasma, 1 mg/Kg i.v., at end of forced swim test): 207 nM
SMILES: Cc1ccc(CN2OCC(N3CCN(c4ccc(O)cn4)CC3)C2=O)cc1 (single isomer, unassigned) [Example 10, P-1, 4-(4-(5-hydroxypyridin-2-yl)piperazin-1-yl)-2-(4-methylbenzyl)isoxazolidin-3-one]
IC50 (hERG channels): 30 µM
